Results taken from article PMC4284639, “The Escherichia coli effector EspJ blocks Src kinase activity via amidation and ADP ribosylation” (Nature Communications, 2014).

Target: T1, EspJ28-217 (Escherichia coli, UniProt B7ULW8)
T1 construct: gene E2348C_0723; residues 28-217, lacking N-terminal secretion signal; 15N-labelled for NMR
Assay: 1H-15N HSQC NMR titration
Type: binding
Conditions: 0.25 mM 15N-labelled protein, 1 or 10 molar equivalents of NAD+; 50 mM NaPO4 pH 7.4, 200 mM NaCl, 5 mM beta-mercaptoethanol, 10% D2O, 295 K; also ADP-ribose donor with GST-Src (150 uM NAD+ and labelle)

T1 sequence (B7ULW8 entry or part of it): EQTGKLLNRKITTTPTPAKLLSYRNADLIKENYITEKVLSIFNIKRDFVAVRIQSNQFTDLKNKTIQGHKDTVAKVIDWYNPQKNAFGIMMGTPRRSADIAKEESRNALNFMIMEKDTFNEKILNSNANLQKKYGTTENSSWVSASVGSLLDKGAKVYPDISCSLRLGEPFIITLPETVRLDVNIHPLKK

## NC(=O)c1ccc[n+]([C@@H]2O[C@H](COP(=O)(O)OP(=O)(O)OC[C@H]3O[C@@H](n4cnc5c(N)ncnc54)[C@H](O)[C@@H]3O)[C@@H](O)[C@H]2O)c1 [NAD^+]
  chemical shift perturbation: The addition of NAD^+ caused substantial chemical shift perturbations for several resonances
